Literature values, collected in patent US20020040051A1, “Solid dispersion of ipriflavone for oral administration and its manufacturing methods” (priority 2000, published 2002).
≈ marks a conversion by molar mass, not a printed value.

Assays:
[1] = 200 mg 3-4 times daily (600-800 mg daily), healthy adult male (18-60 yr); cited from earlier work
[2] = cited from earlier work

CC(C)Oc1ccc2c(=O)c(-c3ccccc3)coc2c1 [compound 1, 3-phenyl-7-isopropoxy-4H-1-benzopyrane-4-one]
day of administration on which blood concentration reaches an effective level [1]: 3rd or 4th day | water solubility [2]: 1 µg/mL (≈ 3.57 µM)
